Drawing on article PMC8885877, “STAT3 inhibition suppresses adaptive survival of ALK-rearranged lung cancer cells through transcriptional modulation of apoptosis” (NPJ Precision Oncology, 2022), this text covers IC50 for 1 substance.

The assay addresses STAT3 (Homo sapiens, UniProt P40763). Briefly: Alpha-based competitive binding assay with biotinylated recombinant STAT3 and FITC-labeled phospho-Tyr peptide. The source says: Alpha-based competitive binding assay with biotinylated recombinant STAT3 and FITC-labeled phospho-Tyr peptide on STAT3 | inhibited the binding of phospho-Tyr peptide to the SH2 domain of STAT3 in a concentration-dependent manner with IC50 values

Chain of STAT3 (P40763 2-770): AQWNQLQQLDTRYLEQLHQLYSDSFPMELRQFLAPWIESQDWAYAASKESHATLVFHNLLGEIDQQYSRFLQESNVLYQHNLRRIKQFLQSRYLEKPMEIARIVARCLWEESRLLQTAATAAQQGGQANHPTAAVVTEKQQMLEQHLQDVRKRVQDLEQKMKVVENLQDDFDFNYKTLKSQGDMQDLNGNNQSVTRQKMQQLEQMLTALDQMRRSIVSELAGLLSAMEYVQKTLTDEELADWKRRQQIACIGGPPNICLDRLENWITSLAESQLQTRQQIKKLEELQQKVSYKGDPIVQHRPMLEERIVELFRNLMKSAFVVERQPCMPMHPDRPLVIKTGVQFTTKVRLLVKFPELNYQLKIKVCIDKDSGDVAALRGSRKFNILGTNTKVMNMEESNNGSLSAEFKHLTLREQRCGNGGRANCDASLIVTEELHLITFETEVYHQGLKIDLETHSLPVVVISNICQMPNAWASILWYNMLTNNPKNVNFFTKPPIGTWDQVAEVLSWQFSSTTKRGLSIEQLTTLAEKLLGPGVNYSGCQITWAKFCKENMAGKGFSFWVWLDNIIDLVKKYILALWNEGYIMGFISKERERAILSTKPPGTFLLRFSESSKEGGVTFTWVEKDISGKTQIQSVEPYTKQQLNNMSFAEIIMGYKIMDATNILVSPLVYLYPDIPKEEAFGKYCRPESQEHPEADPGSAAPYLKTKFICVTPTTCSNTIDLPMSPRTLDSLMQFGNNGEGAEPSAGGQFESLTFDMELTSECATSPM

On to YHO-1701, for which the IC50 came to 2500 nM.

The term IC50 denotes the concentration at which inhibition is half-maximal.
